In US20210387992A1, “POLYMORPH FORM OF A MONOPHOSPHATE HYDRATE SALT OF A KNOWN TETRAHYDROISOQUINOLINE DERIVATIVE” (Pfizer Inc., priority 2019, published 2021):
Where a name gives a salt, the structure may show the parent alone.

Assays:
[1] = Hygroscopicity by Dynamic Vapor Sorption (DVS); type: physicochemical; settings: 25° C.
Experimental: (§1) The hygroscopicity of the products of Reference Example 1 and Example 3 were tested using Dynamic Vapor Sorption (DVS). Surface Measurement Systems Ltd. Dynamic Vapour Sorption Advantage Equipment was used employing a 10% RH change at 25° C. starting at 40% RH and looping from 0% RH to 90% RH and back to 0% RH twice. […] Two full cycles from 0% RH to 90% RH were carried out. The percent mass increase with respect to the sample mass of the first exposure to 0% RH (dry weight) was calculated and is presented in Table 7. […] Also, a decrease in mass is noted at 80% RH consistent with a solid-state change, occurs at these conditions.

[2] = Solid-state physical stability: PXRD after the DVS run / exposure to high RH; type: physicochemical; settings: for physical stability / structural change on water sorption (in words): DVS 0-90% RH, PXRD after the run
Experimental: as §1

Cc1ncnc2c1ccn2[C@@H]1C[C@H](Oc2cc(C(F)F)c(F)c3c2CNCC3)[C@@H](O)[C@H]1O [di HCl, (1S,2S,3S,5R)-3-((6-(difluoromethyl)-5-fluoro-1,2,3,4-tetrahydroisoquinolin-8-yl)oxy)-5-(4-methyl-7H-pyrrolo[2,3-d]pyrimidin-7-yl)cyclopentane-1,2-diol (di) hydrochloride]
% Mass-Ref Dry mass ([1]; 0% RH, relative to mass at first exposure to 0% RH): 0.0% | hygroscopicity (in words) ([1]; 0-90% RH): very hygroscopic | % Mass-Ref Dry mass ([1]; 10% RH, hydrochloride): 2.9% | % Mass-Ref Dry mass ([1]; 20% RH, hydrochloride): 4.0% | % Mass-Ref Dry mass ([1]; 30% RH, hydrochloride): 4.9% | % Mass-Ref Dry mass ([1]; 40% RH, hydrochloride): 6.0% | % Mass-Ref Dry mass ([1]; 50% RH, hydrochloride): 7.6% | % Mass-Ref Dry mass ([1]; 60% RH, hydrochloride): 10.4% | % Mass-Ref Dry mass ([1]; 70% RH, hydrochloride): 14.7% | % Mass-Ref Dry mass ([1]; 70% RH, listed as diHCl salt, hydrochloride): 14.7% | % Mass-Ref Dry mass ([1]; 80% RH, hydrochloride): 12.0% | % Mass-Ref Dry mass ([1]; 90% RH, hydrochloride): 12.0% | physical stability / structural change on water sorption (in words) ([2]; listed as di-HCL salt, hydrochloride): not physically stable | relative humidity at which the amorphous salt crystallizes ([2]; PXRD after DVS run, 25° C.): ≥ 80 % RH

Cc1ncnc2c1ccn2[C@@H]1C[C@H](Oc2cc(C(F)F)c(F)c3c2CNCC3)[C@@H](O)[C@H]1O [Phosphate, (1S,2S,3S,5R)-3-((6-(difluoromethyl)-5-fluoro-1,2,3,4-tetrahydroisoquinolin-8-yl)oxy)-5-(4-methyl-7H-pyrrolo[2,3-d]pyrimidin-7-yl)cyclopentane-1,2-diol monophosphate hydrate]
% Mass-Ref Dry mass ([1]; 10% RH, monophosphate hydrate): 3.4% | % Mass-Ref Dry mass ([1]; 20% RH, monophosphate hydrate): 3.7% | % Mass-Ref Dry mass ([1]; 30% RH, monophosphate hydrate): 3.9% | % Mass-Ref Dry mass ([1]; 40% RH, monophosphate hydrate): 4.1% | % Mass-Ref Dry mass ([1]; 50% RH, monophosphate hydrate): 4.3% | % Mass-Ref Dry mass ([1]; 60% RH): 4.5% | % Mass-Ref Dry mass ([1]; 70% RH, listed as Example 3 phosphate salt, monophosphate hydrate): 4.57% | % Mass-Ref Dry mass ([1]; 70% RH, monophosphate hydrate): 4.6% | % Mass-Ref Dry mass ([1]; 80% RH, monophosphate hydrate): 4.7% | % Mass-Ref Dry mass ([1]; 90% RH, monophosphate hydrate): 4.8% | physical stability / structural change on water sorption (in words) ([2]; listed as Example 3 phosphate salt, monophosphate hydrate): no structural changes caused by the water sorption
